According to ChEMBL document CHEMBL6182888, “Design, synthesis, and biological activity study of 6,7-dimethoxy-1,2,3,4-tetrahydroisoquinoline derivatives against multidrug resistance in Eca109/VCR cells” (Eur J Med Chem, 2025):

Legend:
[1] = Reversal fold, ratio of vincristine IC50 to vincristine IC50 in presence of test compound for reversal of drug resistance in human Eca-109/VCR cells at 5 uM incubated for 48 hrs by CCK-8 assay; type: functional
Eca-109/VCR = assay: Cytotoxicity against human Eca-109/VCR cells assessed as reduction in cell viability at 5.0 uM incubated for 48 hrs by CCK-8 assay relative to control; type: functional

Row | Compound | Ratio IC50 [1] | Cell viability (% of control) (Eca-109/VCR) [%]
1 | COc1cc2c(cc1OC)C(Cc1ccc(OCCC(C)C)c(OC)c1)N(C)CC2 (configuration not stated) | 227.1 | 105.5
2 | COc1cc2c(cc1OC)C(Cc1ccc(OC)c(OS(=O)(=O)Cc3ccccc3)c1)N(C)CC2 (configuration not stated) | 180 | 101.5
3 | COc1cc2c(cc1OC)C(Cc1ccc(OCC3CC3)c(OC)c1)N(C)CC2 (configuration not stated) | 1.5 | 104.2
4 | COc1cc2c(cc1OC)C(Cc1ccc(OCC3CCCCC3)c(OC)c1)N(C)CC2 (configuration not stated) | 280 | 87.7
5 | COc1cc2c(cc1OC)C(Cc1ccc(OCc3ccc(Br)cc3)c(OC)c1)N(C)CC2 (configuration not stated) | 201.2 | 91.1
6 | CCOCCOCCOc1ccc(CC2c3cc(OC)c(OC)cc3CCN2C)cc1OC (configuration not stated) | 8.5 | 103.6
7 | COc1cc2c(cc1OC)C(Cc1ccc(OS(=O)(=O)c3ccc([N+](=O)[O-])cc3)c(OC)c1)N(C)CC2 (configuration not stated) | 172.2 | 105.6
8 | COc1cc2c(cc1OC)C(Cc1ccc(OC)c(OS(=O)(=O)c3ccccc3[N+](=O)[O-])c1)N(C)CC2 (configuration not stated) | 253.3 | 102
9 | COc1cc2c(cc1OC)C(Cc1ccc(OCc3ccc(Cl)cc3Cl)c(OC)c1)N(C)CC2 (configuration not stated) | 307.6 | 92.4
10 | CCCCCCCCOc1cc(CC2c3cc(OC)c(OC)cc3CCN2C)ccc1OC (configuration not stated) | 159 | 95.3
11 | COc1cc2c(cc1OC)C(Cc1ccc(OS(=O)(=O)c3ccc4ccccc4c3)c(OC)c1)N(C)CC2 (configuration not stated) | 362.1 | 84.7
12 | COc1cc2c(cc1OC)C(Cc1ccc(OC)c(OCC3CC3)c1)N(C)CC2 (configuration not stated) | 6.3 | 105.6
13 | COc1cc2c(cc1OC)C(Cc1ccc(OC)c(OCc3ccc(Cl)cc3Cl)c1)N(C)CC2 (configuration not stated) | 412.3 | 55.4
14 | COc1cc2c(cc1OC)C(Cc1ccc(OS(=O)(=O)c3ccc(C#N)cc3)c(OC)c1)N(C)CC2 (configuration not stated) | 168.5 | 99.9
15 | CCCCCCCCOc1ccc(CC2c3cc(OC)c(OC)cc3CCN2C)cc1OC (configuration not stated) | 82.6 | 94.7
16 | COc1cc2c(cc1OC)C(Cc1ccc(OC)c(OCc3ccc(Br)cc3)c1)N(C)CC2 (configuration not stated) | 158 | 97.8
17 | COc1cc2c(cc1OC)C(Cc1ccc(OC)c(OS(=O)(=O)c3ccccc3F)c1)N(C)CC2 (configuration not stated) | 16.5 | 98.9
18 | COC(=O)c1sccc1S(=O)(=O)Oc1cc(CC2c3cc(OC)c(OC)cc3CCN2C)ccc1OC (configuration not stated) | 12.3 | 100.7
19 | COc1cc2c(cc1OC)C(Cc1ccc(OC)c(Oc3ccc([N+](=O)[O-])cc3)c1)N(C)CC2 (configuration not stated) | 53.2 | 100.4
20 | COc1cc2c(cc1OC)C(Cc1ccc(OC)c(OS(=O)(=O)c3ccc(C(F)(F)F)cc3)c1)N(C)CC2 (configuration not stated) | 371.9 | 100.5
21 | COc1cc2c(cc1OC)C(Cc1ccc(OCC3CCC3)c(OC)c1)N(C)CC2 (configuration not stated) | 188.7 | 107.9

Row | Compound | Ratio IC50 [1] | Cell viability (% of control) (Eca-109/VCR) [%]
22 | COc1cc2c(cc1OC)C(Cc1ccc(OC)c(OS(=O)(=O)c3ccc([N+](=O)[O-])cc3)c1)N(C)CC2 (configuration not stated) | 141.5 | 101.5
23 | COc1cc2c(cc1OC)C(Cc1ccc(OC)c(OCCCc3ccccc3)c1)N(C)CC2 (configuration not stated) | 124.1 | 96.9
24 | C=CCCCCOc1cc(CC2c3cc(OC)c(OC)cc3CCN2C)ccc1OC (configuration not stated) | 15.2 | 98.2
25 | C=CCCCCOc1ccc(CC2c3cc(OC)c(OC)cc3CCN2C)cc1OC (configuration not stated) | 1.9 | 103.4
26 | COc1cc2c(cc1OC)C(Cc1ccc(OC)c(OS(=O)(=O)c3ccc(C#N)cc3)c1)N(C)CC2 (configuration not stated) | 235.4 | 96
27 | COc1cc2c(cc1OC)C(Cc1ccc(OCCCc3ccccc3)c(OC)c1)N(C)CC2 (configuration not stated) | 162.4 | 103.3
28 | COc1cc2c(cc1OC)C(Cc1ccc(OC)c(OS(=O)(=O)c3ccccc3)c1)N(C)CC2 (configuration not stated) | 24 | 102.6
29 | COC(=O)c1sccc1S(=O)(=O)Oc1ccc(CC2c3cc(OC)c(OC)cc3CCN2C)cc1OC (configuration not stated) | 182.2 | 101.9
30 | COc1cc2c(cc1OC)C(Cc1ccc(OC)c(OC(=O)C3CCCCC3)c1)N(C)CC2 (configuration not stated) | 4.5 | 103.6
31 | COc1cc2c(cc1OC)C(Cc1ccc(OC)c(OS(=O)(=O)c3ccc4ccccc4c3)c1)N(C)CC2 (configuration not stated) | 340.5 | 94.7
32 | COc1cc2c(cc1OC)C(Cc1ccc(OS(=O)(=O)c3ccccc3F)c(OC)c1)N(C)CC2 (configuration not stated) | 274.3 | 98.2
33 | COc1cc2c(cc1OC)C(Cc1ccc(OC)c(OCC(=O)OC(C)(C)C)c1)N(C)CC2 (configuration not stated) | 3.6 | 104.3
34 | COc1cc2c(cc1OC)C(Cc1ccc(OS(=O)(=O)Cc3ccccc3)c(OC)c1)N(C)CC2 (configuration not stated) | 171.6 | 102.6
35 | COc1cc2c(cc1OC)C(Cc1ccc(OC)c(OC(=O)c3ccc4ccccc4c3)c1)N(C)CC2 (configuration not stated) | 107.9 | 101.1
36 | COc1cc2c(cc1OC)C(Cc1ccc(OCCc3ccccc3)c(OC)c1)N(C)CC2 (configuration not stated) | 1.8 | 104.2
37 | CCOCCOCCOc1cc(CC2c3cc(OC)c(OC)cc3CCN2C)ccc1OC (configuration not stated) | 2.2 | 103.1
38 | COc1cc2c(cc1OC)C(Cc1ccc(OC)c(OCCc3ccccc3)c1)N(C)CC2 (configuration not stated) | 12.3 | 102.4
39 | COc1cc2c(cc1OC)C(Cc1ccc(OS(=O)(=O)c3ccc(C(F)(F)F)cc3)c(OC)c1)N(C)CC2 (configuration not stated) | 307.4 | 90.4
40 | COc1cc2c(cc1OC)C(Cc1ccc(OC)c(OCC3CCC3)c1)N(C)CC2 (configuration not stated) | 122.6 | 102.7
41 | COc1cc2c(cc1OC)C(Cc1ccc(OCc3ccccc3)c(OC)c1)N(C)CC2 (configuration not stated) | 80.3 | 101.4
